Measured values: patent US20030203035A1, “Allergen neutralization compositions” (The Procter & Gamble Company, priority 2000, published 2003)

Molecular target: T1, Der f 2 mite extract (Dermatophagoides farinae, UniProt Q00855)
T1 construct: Add 1.0 ml of 20 ug/ml Der f 2 mite extract; from tissue; host or cells: house dust mite extract (Dermatophagoides farinae)
T1 sequence (Q00855 18-146): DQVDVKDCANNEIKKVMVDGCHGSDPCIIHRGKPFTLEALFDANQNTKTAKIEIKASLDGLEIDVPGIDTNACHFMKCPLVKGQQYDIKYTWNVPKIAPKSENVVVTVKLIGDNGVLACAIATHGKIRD
Assay: Efficacy Determination Protocol, ELISA (allergen neutralization)
Format: biochemical
Conditions: for Average Absorbance / % of Allergen Remaining: 1.4 wt.% of ion; for Average Absorbance: 490 nm, water control 1.7; for % of Allergen Remaining: Der f 2, normalized to water control = 100
Description: The efficacy of an allergen neutralization composition can be determined by the ELISA protocol. Enzyme-linked immunosorbent assay (“ELISA”) is a highly sensitive assay technique for detection and measurement of antigens or antibodies in solution. The assay uses enzyme-linked antigens or antibodies to amplify an antigen-antibody reaction. A single enzyme-linked antibody-antigen complex can convert orders of magnitude more of colorless substrate molecules into detectable colored products, thus considerably amplifying the original antigen-antibody reaction. The antigen or antibody is adsorbed onto the surface of the well of a microtiter plate, and all the relevant reactions take place in solution inside the well. While the following protocol will be easily understood by those skilled in the art, for a more detailed explanation please see Konishi, E. and Uehara, K. Enzyme-linked immunosorbent assay for quantifying antigens of Dermatophagoides farinae and D. pteronyssinus (Acari: Pyroglyphidae) in house dust samples, 1990, Entomologist Society of America, 27 (6), p. 993-998.
It is understood that those skilled in the art of allergen suppression will be aware of numerous variations to the protocol given below. For example, the monoclonal antibody may be substituted with a similar antibody, for example Der f 1 for Der f 2. But a standard, in this case water, is used and the results for the samples that contain active ingredients are normalized against the standard and the results reported as percentage of allergen remaining That is, the amount of allergen that is not neutralized. Thus, the allergen neutralization results for similar, but not identical antibodies should be substantially the same when normalized to the standard. Both Der f 1 and Der f 2 were tested for various compositions, but Der f 2 was chosen as the standard for the present Efficacy Determination Protocol because it is more difficult to neutralize. To be clear, the values for the % of allergen remaining that are reported in Table I will generally improve (that is, decrease) when tested with Der f 1.
At least two samples are prepared. One sample contains only distilled water and samples of one or more allergen neutralization compositions containing the allergen neutralization active, for example ZnCl2, tannin, etc. The samples are all treated according to the same protocol, and the distilled water sample is used as the control. All samples are prepared as follows:
1) Add 1.0 ml of 20 ug/ml Der f 2 mite extract to 0.8 ml of the sample composition (either the allergen neutralization composition or water for the control). Mix well and let sit for 1 hour at room temp.
2) Add 2.2 ml of 20% skim milk in Phosphate Buffer Saline (PBS).
3) Mix well by vortexing and centrifuge at 12000 rpm (approx. 17000×g) for 1 hour.
4) The supernatant is used for the ELISA protocol.
Each well of a microplate is coated at 4° C. overnight with 100 μl of Der f 2 monoclonal antibody (clone 15E11, from Asahi Breweries., AB-A-4) at a protein concentration of […] of Phosphate Buffer Saline (PBS), pH 7.4 containing 0.1% sodium azide. The monoclonal antibody is discarded and the plate is incubated with 100 μL of 1% BSA PBS containing 0.1% sodium azide for 1 hour. The plate is washed 3 times with PBS containing 0.05% Tween 20 (PBS-T). 100 μl of an allergen sample is added and incubated for 1 hour at 37° C.
Use 3× dilutions of a reference Dermatophagoides farinae crude extract (commercially available from LSL) to make the standard curve. The curve is made using 6.9 nanogram-mite extract equivalent/ml to 5 microgram-mite extract equivalent/ml. Wash plate with PBS-T for 3 times. 100 μl of Horse Radish Peroxidase (HRP) conjugated anti Der f 2 antibody (clone 13A4) is added at 40 ng/ml and the plate is incubated at 37° C. for 1 hour. The plate is then washed with PBS-T 3 times and then washed with water 3 times. […]

[1] = weight % of metal ion in the composition, inferred from Table III

Question: Which “Average Absorbance” value (pH 3.6) does the source give for `[Cl-].[Cl-].[Zn+2]` [ZnCl2, Zinc chloride] here?
Answer: Its value is 0.70.

Question: And the “% of Allergen Remaining” value (pH 3.6)?
Answer: The value was 34%.

Question: For `[Cl][Sn][Cl]` [SnCl2], which “Average Absorbance” value (pH 2.1) is on record?
Answer: The value was 0.54.

Question: What about the “% of Allergen Remaining” value (pH 2.1) of the same molecule?
Answer: Its value is 32%.

Question: What about the “Average Absorbance” value (pH 3.2) of the same molecule?
Answer: The value was 0.25.

Question: What about the “% of Allergen Remaining” value (pH 3.2) of the same molecule?
Answer: The value was 18%.

Question: What about the “effective amount if 80% removal is necessary” value [1] of the same molecule?
Answer: Its value is “about 1.4%”.

Question: And the “effective amount to remove 50% of allergens” value [1]?
Answer: Its value is “less than 1.4%”.

Question: `O=S(=O)([O-])[O-].[Sn+2]` [SnSO4] was tested. Which “Average Absorbance” value (pH 2.0) did it give?
Answer: Its value is 0.28.

Question: What about the “% of Allergen Remaining” value (pH 2.0) of the same molecule?
Answer: Its value is 22%.

Question: What does the source list for `O=S(=O)([O-])[O-].[Fe+2]` [FeSO4]?
Answer: Average Absorbance (pH 3.5): 1.13; % of Allergen Remaining (pH 3.5): 54%

Question: For `[Cl][Fe][Cl]` [FeCl2], which “Average Absorbance” value (pH 2.9) is on record?
Answer: Its value is 0.84.

Question: And the “% of Allergen Remaining” value (pH 2.9)?
Answer: The value was 44%.
